Reference: patent publication US20210388319A1, “EXPANSION OF HEMATOPOIETIC STEM CELLS” (Mesoblast International Sarl, priority 2018, published 2021)

Key:
[1] = system: CB CD34+ cells (cord blood derived CD34+ HSCs); assay: Co-culture of cord blood CD34+ cells with MPCs and small molecules, 4-colour flow cytometric analysis; assay type: cell-based, human; settings: for expansion of CD34+ cells with the primitive HSC phenotype CD34+CD45RA− CD90+CD49f+: day 10, presence of MPCs and HDACi versus absence of MPCs or a HDACi (FIG. 9)
Experimental: • Cells: CB CD34+ (Stem Cell Technologies) • Medium: StemSpan SFEM (StemCell Technologies) supplemented with: • Human low density lipoprotein (Stem Cell Technologies) 10 μg/ml • Growth Factors (‘SFT’): • rHu-SCF 100 ng/ml • rHu-FLT3Ligand 100 ng/ml • rHu-TPO 50 ng/ml • (All recombinant cytokines are from R&D Systems) • Small Molecules: • SR1 (500 nM); UM171 (35 nM); Trichostatin A (TSA, 50 nM); Valproic Acid (VPA, 500 μM) (all from Stem Cell Technologies) • Assay conditions: • Day −1 MPC (MCBCC006) plated at 50,000/well in 2×24-well plates in Alpha-MEM/10% FBS • Day 0 10,000 CD34+ cells per well plated into each well of two 24 well plates. MPC containing wells were first washed to remove FBS medium. • The remaining CD34+ cells were cultured at the same concentration in a T-25 flask in StemSpan/SFT/SR-1+ UM171. This was to provide bulk cells for set up of flow cytometry analysis and to define electronic compensation settings for multicolour analysis. • Day 3 All groups were fed by removing 1.5 mL of media and replacing with 2.0 mL of fresh media+additives. • Day 5 Flow cytometric analysis: 1.5 mL of culture media was harvested from each well. For the suspension (No MPG) groups this was achieved by first aspirating the medium up and down to completely suspend the CD34+ cells before removing 1.5 mL of the suspension. For the +MPG groups, the CD34+ cells were resuspended in such a way that the MPC feeder layer was left intact. After the cells were removed from each well, they were replaced with 2.0 mL of fresh media+additives. A cell count was performed on all wells. This was required to determine not only the incidence of populations identified by FACS analysis, but also their absolute number. • Day 8 All groups were fed by removing 2.0 mL of media and replacing with 2.0 mL of fresh media and additives. • Day 10 Flow cytometric analysis: The complete content of each well was harvested. For the suspension (No MPG) groups this was achieved by first aspirating the medium up and down to completely suspend the CD34+ cells before removing the suspension. For the +MPG groups, the CD34+ cells in suspension were first harvested (as described above for Day 5). CD34+ cells attached to the MPC layer were then detached by a brief exposure (5 mins) to 0.05% trypsin-EDTA in PBS at 37° C., the trypsin quenched in 10% FBS and the detached cells pooled with the previously harvested suspension fraction to represent the Day 10 harvest.
A 4-colour flow cytometric analysis was performed to allow identification and quantitation of CD34+ cells and relevant subpopulations including candidate hematopoietic stem cells (HSC) according to the phenotype CD34+CD45RA− CD90+CD49f+ described for cord blood (Notta et al., (2011) Science 333: 218-221). All antibody conjugates were used at concentrations recommended by the manufacturers.
As noted above, the bulk culture of CD34+ cells in StemSpan/SFT/SR-1+ UM171 was used at both Day 5 and Day 10 to establish settings for flow cytometric analysis and to establish compensation settings. Stains with the following antibody/antibody combinations were performed:
Cord blood derived CD34+ HSCs were cultured in the presence and absence of immunoselected MPCs in the presence of: […]

[2] = system: CD34+CD38-CD45RA− CD90+CD49f+ cells; assay: Colony-forming unit (CFU) assay in MethoCult H4435 Enriched of FACS-isolated cells; assay type: cell-based, human; settings: cells isolated by FACS after 10 days in co-culture with MPCs, SFV and VPA; colonies scored on day 14
Experimental: FIG. 11: CD34+CD38-CD45RA− CD90+CD49f+ cells isolated by FACS were cultured in MethoCult™ H4435 Enriched (Stem cell Technologies), and tested for colony forming efficiency on day 14 of culture. Overall colony forming efficiency was 0.42%.
CD34+CD38-CD45RA− CD90+CD49f+ cells were isolated by FACS after 10 days in co-culture with MPCs, SFV and VPA. These isolated cells were then cultured in MethoCult™ H4435 Enriched (Stem cell Technologies), which is a complete methylcellulose-based medium containing IL-3, IL-6, G-CSF, GM-CSF, SCF and EPO and useful for growth and enumeration of hematopoietic progenitor cells in colony-forming unit (CFU) assays). Colonies were scored on day 14 of culture and tested for colony forming efficiency. […] Overall colony forming efficiency was 0.42%.

Row | SMILES | number of CD34+CD45RA− CD90+CD49f+ cells ([1]; after 10 days in co-culture with MPCs, SFV and VPA (500 μM), start about 500 primitive cells) | number of CD34+ cells ([1]; after 10 days in co-culture with MPCs, SFV and VPA (500 μM), start about 10,000 CD34+ cells) | expansion of CD34+ cells with the primitive HSC phenotype CD34+CD45RA− CD90+CD49f+ [1] | increase in the number of CD34+CD90+CD49f+ cells ([1]; over a 10 day period, co-culture with MPCs, SFV and VPA) | overall colony forming efficiency [2]
1 | CCCC(CCC)C(=O)O [VPA, Valproic Acid] | about 22,000 cells | about 800,000 cells | substantially greater expansion | ~44 fold | 0.42%
2 | CC(/C=C/C(=O)NO)=C\[C@@H](C)C(=O)c1ccc(N(C)C)cc1 [TSA, Trichostatin A] |  |  | substantially greater expansion |  | 
